# Measurements: article PMC6522981, “Structure-based design generated novel hydroxamic acid based preferential HDAC6 lead inhibitor with on-target cytotoxic activity against primary choroid plexus carcinoma” (Journal of Enzyme Inhibition and Medicinal Chemistry, 2019)
# Where two headings read alike, the source gives them in different places.
# Key:
# [1] = molecular target: T1, human HDAC8 (Homo sapiens, UniProt Q9BY41); assay: HDAC8 inhibitor enzymatic assay, % inhibition at fixed concentration; format: biochemical; settings: for inhibition at 10 µM: read-out: %inhibition of HDACs at 10µM of test compound HDAC8
# T1 construct: purchased BPS Bioscience 50008
# T1 sequence (Q9BY41 1-377): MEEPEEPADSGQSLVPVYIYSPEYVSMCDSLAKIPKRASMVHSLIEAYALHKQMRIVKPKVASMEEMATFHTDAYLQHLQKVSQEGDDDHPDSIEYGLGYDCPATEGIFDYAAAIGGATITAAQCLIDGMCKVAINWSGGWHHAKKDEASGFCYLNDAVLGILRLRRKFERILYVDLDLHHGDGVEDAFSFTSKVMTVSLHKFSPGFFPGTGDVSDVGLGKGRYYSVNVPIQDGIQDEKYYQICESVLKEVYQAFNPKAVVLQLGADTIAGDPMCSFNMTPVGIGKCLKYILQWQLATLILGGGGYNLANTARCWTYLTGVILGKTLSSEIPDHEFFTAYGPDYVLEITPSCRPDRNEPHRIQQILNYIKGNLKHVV
# [2] = molecular target: T2, human HDAC6 (Homo sapiens, UniProt Q9UBN7); assay: HDAC6 inhibitor enzymatic assay, % inhibition at fixed concentration; settings: for inhibition at 10 µM: read-out: %inhibition of HDACs at 10µM of test compound HDAC6
# T2 sequence (Q9UBN7 1-1215): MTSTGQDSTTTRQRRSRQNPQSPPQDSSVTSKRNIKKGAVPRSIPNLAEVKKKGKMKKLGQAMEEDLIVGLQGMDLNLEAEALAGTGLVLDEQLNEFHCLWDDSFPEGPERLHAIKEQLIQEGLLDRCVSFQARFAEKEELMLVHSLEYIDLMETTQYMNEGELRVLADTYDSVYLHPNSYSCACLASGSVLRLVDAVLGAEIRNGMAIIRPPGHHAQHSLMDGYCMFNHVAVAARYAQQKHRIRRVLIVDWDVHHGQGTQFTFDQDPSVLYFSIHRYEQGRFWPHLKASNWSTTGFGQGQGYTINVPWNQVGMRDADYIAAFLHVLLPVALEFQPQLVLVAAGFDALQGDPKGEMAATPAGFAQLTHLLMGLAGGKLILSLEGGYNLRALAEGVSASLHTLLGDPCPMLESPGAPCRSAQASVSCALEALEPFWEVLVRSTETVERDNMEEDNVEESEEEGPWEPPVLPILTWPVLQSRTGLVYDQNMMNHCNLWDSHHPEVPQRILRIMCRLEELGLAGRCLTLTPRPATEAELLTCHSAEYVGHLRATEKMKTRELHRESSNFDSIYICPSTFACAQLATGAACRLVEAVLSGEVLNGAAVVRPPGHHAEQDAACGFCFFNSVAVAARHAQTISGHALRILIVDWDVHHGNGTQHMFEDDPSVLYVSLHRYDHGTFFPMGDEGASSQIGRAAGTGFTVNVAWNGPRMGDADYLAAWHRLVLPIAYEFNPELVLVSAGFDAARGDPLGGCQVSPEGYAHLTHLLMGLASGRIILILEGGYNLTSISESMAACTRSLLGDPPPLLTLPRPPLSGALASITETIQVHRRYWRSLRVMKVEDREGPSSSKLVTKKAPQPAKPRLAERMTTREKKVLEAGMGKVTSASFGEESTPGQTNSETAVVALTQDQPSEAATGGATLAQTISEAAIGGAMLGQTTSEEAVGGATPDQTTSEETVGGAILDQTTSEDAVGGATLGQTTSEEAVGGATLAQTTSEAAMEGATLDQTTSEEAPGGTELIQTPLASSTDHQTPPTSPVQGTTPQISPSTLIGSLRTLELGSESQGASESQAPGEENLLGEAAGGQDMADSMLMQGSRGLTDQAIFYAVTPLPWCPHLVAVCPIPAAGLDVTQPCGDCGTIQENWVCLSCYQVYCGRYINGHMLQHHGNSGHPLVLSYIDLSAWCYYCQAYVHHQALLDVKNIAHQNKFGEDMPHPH
# [3] = molecular target: T3, human HDAC1 (Homo sapiens, UniProt Q13547); assay: HDAC1 inhibitor enzymatic assay, % inhibition at fixed concentration (BPS Bioscience, fluorogenic); format: biochemical; settings: read-out: %inhibition of HDACs at 10µM of test compound HDAC1; 10 µM compound; mean of two replicates
# T3 construct: purchased BPS Bioscience 50051
# [4] = molecular target: T4, human HDAC2 (Homo sapiens, UniProt Q92769); assay: HDAC2 inhibitor enzymatic assay, % inhibition at fixed concentration; format: biochemical; settings: read-out: %inhibition of HDACs at 10µM of test compound HDAC2; 10 µM compound; mean of two replicates
# T4 construct: purchased BPS Bioscience 50002
# [5] = molecular target: T2, human HDAC6; assay: IC50 of the test inhibitor against HDAC6 (10-dose enzymatic assay); format: biochemical; set-up: purchased BPS Bioscience 50006
# [6] = molecular target: human HDAC9 (Homo sapiens, UniProt Q9UKV0); assay: HDAC9 inhibitor enzymatic assay, % inhibition at fixed concentration
# [7] = molecular target: human HDAC5 (Homo sapiens, UniProt Q9UQL6); assay: HDAC5 inhibitor enzymatic assay, % inhibition at fixed concentration
# [8] = molecular target: human HDAC4 (Homo sapiens, UniProt P56524); assay: HDAC4 inhibitor enzymatic assay, % inhibition at fixed concentration
# [9] = molecular target: T5, human HDAC11 (Homo sapiens, UniProt Q96DB2); assay: HDAC11 inhibitor enzymatic assay, % inhibition at fixed concentration
# T5 sequence (Q96DB2 1-347): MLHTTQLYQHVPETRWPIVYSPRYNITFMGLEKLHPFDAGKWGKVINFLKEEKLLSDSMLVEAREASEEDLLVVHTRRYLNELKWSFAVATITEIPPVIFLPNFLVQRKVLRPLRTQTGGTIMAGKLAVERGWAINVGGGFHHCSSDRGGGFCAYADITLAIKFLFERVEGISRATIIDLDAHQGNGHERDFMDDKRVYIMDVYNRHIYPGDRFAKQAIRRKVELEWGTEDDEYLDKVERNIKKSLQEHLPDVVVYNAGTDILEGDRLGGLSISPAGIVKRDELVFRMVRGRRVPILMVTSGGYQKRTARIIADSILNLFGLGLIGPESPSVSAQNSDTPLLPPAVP
# [10] = test system: CCHE-45 cells (primary choroid plexus carcinoma); assay: Cytotoxicity assay using xCELLigence system; format: cell-based; settings: xCELLigence, 96 h exposure; mean of three replicates; read-out: CCHE-45 IC50 (µM)±SEM
# Experimental: Established primary Choroid plexus carcinoma (CCHE-45) were cultured as previously described, in RPMI-1640 (Lonza, BE-12-702F) supplemented with 10% Fetal Bovine Serum (FBS, Gibco, 12483–020) and 100 U/ml penicillin and 100 µg/ml streptomycin (Lonza, DE17-602F). Cells were maintained at 37 °C in a 5% CO2 humidified atmosphere.
# Cytotoxicity assay by the xCELLigence system was performed using RTCA xCELLigence DP system (ACEA Biosciences, Inc., San Diego, CA, USA) as per manufacturer’s instructions https://www.aceabio.com/products/rtca-dp/, https://www.aceabio.com/products/rtca-sp[65–68]. In brief, after setting up the instruments and blanking the wells with media, CCHE-45 cells were seeded into the 96 well E-plate (ACEA Biosciences) with a density of 20,000 cells/well. Attachment and growth of the cells were monitored every 1 h. Approximately 24 h after seeding, when the cells were in the log growth phase, the cells were exposed to a range of test compound 10a concentrations (3.125, 6.25, 12.5, 25, 50, 100, 200, 400) µM for 96 h. Controls received either medium alone, or medium + DMSO with a final concentration below of 0.5%. For each concentration, duplicates were tested. Experiments were conducted in three biological repeats. Results were analyzed using the RTCA software (Version 2.0). Data was exported and average IC50 value was analyzed.
# • Based on previous pilot experiment, the highest SK114 conc. (100µM)
# 72hrs, thus this experiment was performed with higher concentration
# • Cells were incubated with the drug for 96hrs
# • Experiment was done in technical duplicates
# [11] = read-out: HDAC6 % Activity Repeat1
# [12] = read-out: HDAC6 % Activity Repeat2
# Sequence of human HDAC4 (P56524 627-1084 limits assumed): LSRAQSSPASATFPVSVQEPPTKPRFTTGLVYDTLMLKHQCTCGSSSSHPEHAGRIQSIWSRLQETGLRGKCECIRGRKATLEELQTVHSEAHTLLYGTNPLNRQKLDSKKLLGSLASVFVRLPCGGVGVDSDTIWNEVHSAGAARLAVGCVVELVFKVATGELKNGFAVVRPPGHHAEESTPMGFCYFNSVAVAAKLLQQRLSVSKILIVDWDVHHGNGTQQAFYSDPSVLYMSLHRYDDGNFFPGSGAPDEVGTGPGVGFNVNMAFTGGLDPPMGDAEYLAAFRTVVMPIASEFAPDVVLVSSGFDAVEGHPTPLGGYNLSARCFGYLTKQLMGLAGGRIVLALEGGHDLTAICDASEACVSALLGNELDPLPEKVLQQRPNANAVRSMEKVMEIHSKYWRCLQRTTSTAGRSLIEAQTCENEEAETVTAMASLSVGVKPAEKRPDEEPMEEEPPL
# Sequence of human HDAC5 (Q9UQL6 656-1122 limits assumed): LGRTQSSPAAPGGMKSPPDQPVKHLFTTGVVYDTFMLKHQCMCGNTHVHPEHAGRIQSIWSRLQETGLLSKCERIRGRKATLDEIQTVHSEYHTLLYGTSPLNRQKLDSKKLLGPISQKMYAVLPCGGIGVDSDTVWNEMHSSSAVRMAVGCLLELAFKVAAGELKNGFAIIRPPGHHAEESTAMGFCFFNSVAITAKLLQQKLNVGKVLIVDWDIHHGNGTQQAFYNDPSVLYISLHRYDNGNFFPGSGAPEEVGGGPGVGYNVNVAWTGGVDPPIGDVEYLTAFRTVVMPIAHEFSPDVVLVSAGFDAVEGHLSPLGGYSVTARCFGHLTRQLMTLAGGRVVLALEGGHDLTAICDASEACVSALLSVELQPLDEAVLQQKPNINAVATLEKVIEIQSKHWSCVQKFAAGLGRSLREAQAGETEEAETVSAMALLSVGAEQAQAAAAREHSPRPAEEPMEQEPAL
# T3 sequence (Q13547 whole entry): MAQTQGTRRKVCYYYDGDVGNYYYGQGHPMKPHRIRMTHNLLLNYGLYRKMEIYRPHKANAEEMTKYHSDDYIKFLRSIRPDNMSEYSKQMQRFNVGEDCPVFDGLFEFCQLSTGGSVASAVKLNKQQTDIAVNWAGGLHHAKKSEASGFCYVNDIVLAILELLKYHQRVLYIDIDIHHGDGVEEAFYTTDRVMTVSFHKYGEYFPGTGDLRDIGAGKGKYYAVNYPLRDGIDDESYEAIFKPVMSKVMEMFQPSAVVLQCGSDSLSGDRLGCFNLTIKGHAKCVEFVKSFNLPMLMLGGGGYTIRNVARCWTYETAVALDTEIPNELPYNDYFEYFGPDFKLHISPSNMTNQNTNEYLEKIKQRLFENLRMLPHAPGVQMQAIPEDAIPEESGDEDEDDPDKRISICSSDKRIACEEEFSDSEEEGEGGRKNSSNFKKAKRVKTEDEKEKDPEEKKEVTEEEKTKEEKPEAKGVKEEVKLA
# T4 sequence (Q92769 whole entry): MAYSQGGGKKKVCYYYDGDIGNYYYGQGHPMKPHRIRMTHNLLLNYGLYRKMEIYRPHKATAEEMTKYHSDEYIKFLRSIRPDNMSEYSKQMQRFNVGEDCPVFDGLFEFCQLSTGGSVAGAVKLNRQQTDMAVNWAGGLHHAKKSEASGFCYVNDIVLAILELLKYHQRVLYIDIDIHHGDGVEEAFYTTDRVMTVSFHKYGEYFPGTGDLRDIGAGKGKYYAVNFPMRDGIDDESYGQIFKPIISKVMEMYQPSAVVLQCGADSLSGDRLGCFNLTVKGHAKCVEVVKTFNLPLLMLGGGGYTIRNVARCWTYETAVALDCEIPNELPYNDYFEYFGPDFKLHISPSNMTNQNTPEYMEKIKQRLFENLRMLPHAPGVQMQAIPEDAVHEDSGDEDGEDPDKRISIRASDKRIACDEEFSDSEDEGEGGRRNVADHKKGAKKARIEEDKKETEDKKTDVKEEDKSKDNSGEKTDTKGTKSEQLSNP
# Sequence of human HDAC9 (Q9UKV0 1-1066 isoform Q9UKV0-5): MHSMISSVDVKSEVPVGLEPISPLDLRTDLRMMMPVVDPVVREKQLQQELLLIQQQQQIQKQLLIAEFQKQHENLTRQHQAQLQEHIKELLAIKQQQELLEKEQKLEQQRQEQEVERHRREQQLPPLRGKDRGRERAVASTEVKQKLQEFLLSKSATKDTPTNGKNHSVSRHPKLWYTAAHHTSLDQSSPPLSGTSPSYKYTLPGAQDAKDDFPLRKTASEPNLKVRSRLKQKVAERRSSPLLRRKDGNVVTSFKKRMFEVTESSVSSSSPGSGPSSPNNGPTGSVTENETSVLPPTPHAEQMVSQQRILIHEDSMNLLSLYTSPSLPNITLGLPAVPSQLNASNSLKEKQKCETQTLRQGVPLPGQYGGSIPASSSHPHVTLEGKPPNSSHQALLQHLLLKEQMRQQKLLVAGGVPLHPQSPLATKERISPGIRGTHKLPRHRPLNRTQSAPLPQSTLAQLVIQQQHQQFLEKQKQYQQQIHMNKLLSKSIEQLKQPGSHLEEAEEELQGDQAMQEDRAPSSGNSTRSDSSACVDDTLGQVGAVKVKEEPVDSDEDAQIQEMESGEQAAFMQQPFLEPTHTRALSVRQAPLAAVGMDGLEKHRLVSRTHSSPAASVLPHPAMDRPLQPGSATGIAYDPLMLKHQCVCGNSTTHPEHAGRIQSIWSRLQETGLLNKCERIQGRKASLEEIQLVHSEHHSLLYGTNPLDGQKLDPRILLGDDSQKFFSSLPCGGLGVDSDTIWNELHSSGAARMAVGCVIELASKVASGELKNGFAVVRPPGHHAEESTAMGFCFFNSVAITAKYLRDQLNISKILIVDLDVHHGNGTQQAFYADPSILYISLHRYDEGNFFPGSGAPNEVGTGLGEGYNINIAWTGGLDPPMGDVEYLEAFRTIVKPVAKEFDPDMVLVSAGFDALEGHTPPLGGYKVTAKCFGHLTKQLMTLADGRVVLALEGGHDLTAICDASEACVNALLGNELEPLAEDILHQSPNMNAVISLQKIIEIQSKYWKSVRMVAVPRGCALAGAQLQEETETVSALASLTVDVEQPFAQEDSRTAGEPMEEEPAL
smiles,measurement,setting,value
"O=C(CSc1nc2ccccc2n1Cc1ccccc1)NO [Compound 6a, 2-((1-benzyl-1H-benzo[d]imidazol-2-yl)thio)-N-hydroxyacetamide]",inhibition at 10 µM,[1]; 10 µM compound,14%
same,melting point,,97 °C
same,inhibition at 10 µM,[2],2%
same,inhibition at 10 µM,[3],6%
same,inhibition at 10 µM,[4],5%
"CC(=C/C(C)C(=O)c1ccc(N(C)C)cc1)/C=C/C(=O)NO (centres unmarked) [TSA, Trichostatin A, reference compound]",inhibition at 1 µM,[1]; read-out: % Inhibition HDAC8,53%
same,inhibition at 10 µM,[1],89%
same,activity at 30 pM,[5]; [11],100%
same,activity at 0.0001 µM,[5]; [11],98%
same,activity at 0.0003 µM,[5]; [11],96%
same,activity at 0.001 µM,[5]; [11],79%
same,activity at 0.003 µM,[5]; [11],63%
same,activity at 0.01 µM,[5]; [11],36%
same,activity at 0.03 µM,[5]; [11],15%
same,activity at 0.1 µM,[5]; [11],5%
same,activity at 0.3 µM,[5]; [11],2%
same,activity at 1 µM,[5]; [11],0%
same,activity at 30 pM,[5]; [12],98%
same,activity at 0.0001 µM,[5]; [12],96%
same,activity at 0.0003 µM,[5]; [12],89%
same,activity at 0.001 µM,[5]; [12],84%
same,activity at 0.003 µM,[5]; [12],58%
same,activity at 0.01 µM,[5]; [12],34%
same,activity at 0.03 µM,[5]; [12],13%
same,activity at 0.1 µM,[5]; [12],5%
same,activity at 0.3 µM,[5]; [12],2%
same,activity at 1 µM,[5]; [12],0%
same,inhibition at 1 µM,[6]; read-out: % Inhibition HDAC9,15%
same,inhibition at 100 µM,[6]; read-out: % Inhibition HDAC9,95%
same,inhibition at 10 µM,[6]; read-out: %inhibition of HDACs at 10µM of test compound HDAC9,60%
same,inhibition at 1 µM,[2]; read-out: % Inhibition HDAC6,100%
same,inhibition at 1 µM,[7]; read-out: % Inhibition HDAC5,33%
same,inhibition at 100 µM,[7]; read-out: % Inhibition HDAC5,93%
same,inhibition at 10 µM,[7]; read-out: %inhibition of HDACs at 10µM of test compound HDAC5,64%
same,inhibition at 1 µM,[8]; read-out: % Inhibition HDAC4,36%
same,inhibition at 100 µM,[8]; read-out: % Inhibition HDAC4,92%
same,inhibition at 10 µM,[8]; read-out: %inhibition of HDACs at 10µM of test compound HDAC4,64%
same,inhibition at 1 µM,[9]; read-out: % Inhibition HDAC11,15%
same,inhibition at 100 µM,[9]; read-out: % Inhibition HDAC11,91%
same,inhibition at 10 µM,[9]; read-out: %inhibition of HDACs at 10µM of test compound HDAC11,49%
"O=C(CSc1nc2ccccc2n1CCC1CCCCC1)NO [Compound 6d, 2-((1–(2-cyclohexylethyl)-1H-benzo[d]imidazol-2-yl)thio)-N-hydroxyacetamide]",inhibition at 10 µM,[1]; 10 µM compound,1%
same,melting point,,157 °C
same,inhibition at 10 µM,[2],2%
same,inhibition at 10 µM,[3],14%
same,inhibition at 10 µM,[4],3%
"O=C(CCCCCCC(=O)Nc1ccc([C@H]2O[C@@H](CSc3nc(-c4ccccc4)c(-c4ccccc4)o3)C[C@@H](c3ccc(CO)cc3)O2)cc1)NO [Tubacin, reference compound]",IC50,[10],20 ± 10.2 µM
"O=C(CSc1nc2ccccc2n1CC1CCCCC1)NO [Compound 6c, 2-((1-(Cyclohexylmethyl)-1H-benzo[d]imidazol-2-yl)thio)-N-hydroxyacetamide]",inhibition at 10 µM,[1]; 10 µM compound,14%
same,melting point,,160 °C
same,inhibition at 10 µM,[2],2%
same,inhibition at 10 µM,[3],13%
same,inhibition at 10 µM,[4],7%
"O=C(CCCSc1nc2ccccc2n1CCC1CCCCC1)NO [Compound 10d, 4-((1–(2-cyclohexylethyl)-1H-benzo[d]imidazol-2-yl)thio)-N-hydroxybutanamide]",inhibition at 10 µM,[1]; 10 µM compound,10%
same,melting point,,132 °C
same,inhibition at 10 µM,[2],35%
same,inhibition at 10 µM,[3],11%
same,inhibition at 10 µM,[4],8%
"O=C(CSc1nc2ccccc2n1Cc1ccc(Br)cc1)NO [Compound 6b, 2-((1–(4-bromobenzyl)-1H-benzo[d]imidazol-2-yl)thio)-N-hydroxyacetamide]",inhibition at 10 µM,[1]; 10 µM compound,12%
same,melting point,,167 °C
same,inhibition at 10 µM,[2],6%
same,inhibition at 10 µM,[3],18%
same,inhibition at 10 µM,[4],6%
"O=C(CCCSc1nc2ccccc2n1CC1CCCCC1)NO [Compound 10c, 4-((1-(Cyclohexylmethyl)-1H-benzo[d]imidazol-2-yl)thio)-N-hydroxybutanamide]",inhibition at 10 µM,[1]; 10 µM compound,12%
same,melting point,,149 °C
same,inhibition at 10 µM,[2],14%
same,inhibition at 10 µM,[3],9%
same,inhibition at 10 µM,[4],8%
"O=C(CCCSc1nc2ccccc2n1Cc1ccc(Br)cc1)NO [Compound 10b, 4-((1–(4-bromobenzyl)-1H-benzo[d]imidazol-2-yl)thio)-N-hydroxybutanamide]",inhibition at 10 µM,[1]; 10 µM compound,1%
same,melting point,,153 °C
same,inhibition at 10 µM,[2],12%
same,inhibition at 10 µM,[3],9%
same,inhibition at 10 µM,[4],9%
